Data: US20200360477A1, “INHALABLE FORMULATIONS FOR KINASE INHIBITION” (Aerovate Therapeutics, Inc., priority 2019, published 2020)
Where two headings read alike, the source gives them in different places.

Legend:
PDGFR-α = target: T1, PDGFR-α (Homo sapiens, UniProt P16234); test: KINOMEscan competition binding assay
T1 construct: purchased Eurofins DiscoverX Corporation (KINOMEscan); host or cells: E. coli BL21-derived host (T7 phage) or HEK-293
Description: (§1) The ligand-bound beads were blocked with excess biotin and washed with blocking buffer (SeaBlock (Pierce), 1% BSA, 0.05% Tween 20, 1 mM DTT) to remove unbound ligand and to reduce nonspecific binding. […] Kds were determined using an 11-point 3-fold compound dilution series with three DMSO control points.
(§2) Each was a final volume of 0.02 ml.

FGR = target: T2, FGR (Homo sapiens, UniProt P09769); test: KINOMEscan competition binding assay
T2 construct: purchased Eurofins DiscoverX Corporation (KINOMEscan); host or cells: E. coli BL21-derived host (T7 phage) or HEK-293
Description: as §1, §2

RET = target: T3, RET (Homo sapiens, UniProt P07949); test: KINOMEscan competition binding assay
T3 construct: purchased Eurofins DiscoverX Corporation (KINOMEscan); host or cells: E. coli BL21-derived host (T7 phage) or HEK-293
Description: as §1, §2

PDGFR-β = target: T4, PDGFR-β (Homo sapiens, UniProt P09619); test: KINOMEscan competition binding assay
T4 construct: purchased Eurofins DiscoverX Corporation (KINOMEscan); host or cells: E. coli BL21-derived host (T7 phage) or HEK-293
T4 sequence (P09619 33-1106): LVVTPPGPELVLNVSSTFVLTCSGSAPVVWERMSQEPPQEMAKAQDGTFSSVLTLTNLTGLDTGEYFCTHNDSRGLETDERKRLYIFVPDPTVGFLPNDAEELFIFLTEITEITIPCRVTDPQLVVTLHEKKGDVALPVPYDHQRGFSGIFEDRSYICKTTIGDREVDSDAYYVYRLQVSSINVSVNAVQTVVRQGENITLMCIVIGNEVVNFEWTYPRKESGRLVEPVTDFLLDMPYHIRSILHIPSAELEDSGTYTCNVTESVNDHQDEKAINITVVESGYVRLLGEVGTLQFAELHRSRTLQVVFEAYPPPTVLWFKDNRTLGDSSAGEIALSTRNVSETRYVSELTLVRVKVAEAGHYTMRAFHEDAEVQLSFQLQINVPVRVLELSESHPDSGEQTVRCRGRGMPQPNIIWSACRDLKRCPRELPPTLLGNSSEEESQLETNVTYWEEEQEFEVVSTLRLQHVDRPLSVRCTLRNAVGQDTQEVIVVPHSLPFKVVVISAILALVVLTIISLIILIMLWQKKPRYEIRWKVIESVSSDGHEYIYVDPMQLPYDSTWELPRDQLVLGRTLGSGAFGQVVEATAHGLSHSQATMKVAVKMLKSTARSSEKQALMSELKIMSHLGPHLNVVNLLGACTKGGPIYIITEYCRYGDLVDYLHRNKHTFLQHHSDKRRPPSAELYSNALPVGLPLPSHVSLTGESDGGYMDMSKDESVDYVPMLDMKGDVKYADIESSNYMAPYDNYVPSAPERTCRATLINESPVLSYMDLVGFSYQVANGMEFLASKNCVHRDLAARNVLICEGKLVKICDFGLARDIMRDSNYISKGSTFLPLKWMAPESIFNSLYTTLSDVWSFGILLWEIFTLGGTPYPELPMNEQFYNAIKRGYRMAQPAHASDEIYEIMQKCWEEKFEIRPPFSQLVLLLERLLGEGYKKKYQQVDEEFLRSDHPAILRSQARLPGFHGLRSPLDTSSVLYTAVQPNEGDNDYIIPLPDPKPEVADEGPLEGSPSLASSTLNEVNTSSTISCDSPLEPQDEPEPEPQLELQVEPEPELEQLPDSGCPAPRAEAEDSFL
Description: as §1, §2

VEGFR2 = target: T5, VEGFR2 (Homo sapiens, UniProt P35968); test: KINOMEscan competition binding assay
T5 construct: purchased Eurofins DiscoverX Corporation (KINOMEscan); host or cells: E. coli BL21-derived host (T7 phage) or HEK-293
T5 sequence (P35968 20-1356): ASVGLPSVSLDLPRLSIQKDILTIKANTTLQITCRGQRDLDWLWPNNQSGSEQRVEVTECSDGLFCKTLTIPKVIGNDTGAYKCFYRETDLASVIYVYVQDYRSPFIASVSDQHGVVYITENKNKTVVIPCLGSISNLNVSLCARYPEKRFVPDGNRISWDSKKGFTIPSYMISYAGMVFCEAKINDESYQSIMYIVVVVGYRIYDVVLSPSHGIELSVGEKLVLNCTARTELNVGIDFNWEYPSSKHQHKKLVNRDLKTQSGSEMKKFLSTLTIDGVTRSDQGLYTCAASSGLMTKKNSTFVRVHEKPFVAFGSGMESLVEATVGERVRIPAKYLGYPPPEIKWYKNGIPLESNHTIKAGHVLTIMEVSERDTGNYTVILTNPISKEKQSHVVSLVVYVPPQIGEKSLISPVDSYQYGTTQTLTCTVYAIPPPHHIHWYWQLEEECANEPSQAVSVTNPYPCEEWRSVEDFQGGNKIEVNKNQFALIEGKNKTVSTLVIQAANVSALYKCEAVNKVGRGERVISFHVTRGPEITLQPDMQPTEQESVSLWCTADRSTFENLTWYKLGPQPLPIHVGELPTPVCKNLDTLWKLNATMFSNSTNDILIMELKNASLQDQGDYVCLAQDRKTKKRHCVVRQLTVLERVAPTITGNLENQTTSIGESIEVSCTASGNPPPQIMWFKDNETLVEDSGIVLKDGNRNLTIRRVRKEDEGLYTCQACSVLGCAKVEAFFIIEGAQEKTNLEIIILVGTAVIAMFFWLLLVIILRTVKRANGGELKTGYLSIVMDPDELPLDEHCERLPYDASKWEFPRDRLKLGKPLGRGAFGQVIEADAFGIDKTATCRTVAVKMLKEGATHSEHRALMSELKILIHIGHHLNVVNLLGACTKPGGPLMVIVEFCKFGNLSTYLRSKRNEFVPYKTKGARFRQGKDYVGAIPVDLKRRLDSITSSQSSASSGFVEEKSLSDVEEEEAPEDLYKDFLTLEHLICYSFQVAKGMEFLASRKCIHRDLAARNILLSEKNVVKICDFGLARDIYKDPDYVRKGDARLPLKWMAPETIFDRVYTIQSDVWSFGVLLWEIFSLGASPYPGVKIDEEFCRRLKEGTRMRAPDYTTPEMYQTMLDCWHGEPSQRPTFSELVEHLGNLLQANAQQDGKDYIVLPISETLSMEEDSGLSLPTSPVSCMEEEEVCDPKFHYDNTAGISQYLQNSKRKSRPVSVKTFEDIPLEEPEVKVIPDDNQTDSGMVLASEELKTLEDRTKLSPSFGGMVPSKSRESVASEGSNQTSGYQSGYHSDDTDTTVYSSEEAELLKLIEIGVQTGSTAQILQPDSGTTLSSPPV
Description: as §1, §2

DDR2 = target: T6, DDR2 (Homo sapiens, UniProt Q16832); test: KINOMEscan competition binding assay
T6 construct: purchased Eurofins DiscoverX Corporation (KINOMEscan); host or cells: E. coli BL21-derived host (T7 phage) or HEK-293
T6 sequence (Q16832 22-855): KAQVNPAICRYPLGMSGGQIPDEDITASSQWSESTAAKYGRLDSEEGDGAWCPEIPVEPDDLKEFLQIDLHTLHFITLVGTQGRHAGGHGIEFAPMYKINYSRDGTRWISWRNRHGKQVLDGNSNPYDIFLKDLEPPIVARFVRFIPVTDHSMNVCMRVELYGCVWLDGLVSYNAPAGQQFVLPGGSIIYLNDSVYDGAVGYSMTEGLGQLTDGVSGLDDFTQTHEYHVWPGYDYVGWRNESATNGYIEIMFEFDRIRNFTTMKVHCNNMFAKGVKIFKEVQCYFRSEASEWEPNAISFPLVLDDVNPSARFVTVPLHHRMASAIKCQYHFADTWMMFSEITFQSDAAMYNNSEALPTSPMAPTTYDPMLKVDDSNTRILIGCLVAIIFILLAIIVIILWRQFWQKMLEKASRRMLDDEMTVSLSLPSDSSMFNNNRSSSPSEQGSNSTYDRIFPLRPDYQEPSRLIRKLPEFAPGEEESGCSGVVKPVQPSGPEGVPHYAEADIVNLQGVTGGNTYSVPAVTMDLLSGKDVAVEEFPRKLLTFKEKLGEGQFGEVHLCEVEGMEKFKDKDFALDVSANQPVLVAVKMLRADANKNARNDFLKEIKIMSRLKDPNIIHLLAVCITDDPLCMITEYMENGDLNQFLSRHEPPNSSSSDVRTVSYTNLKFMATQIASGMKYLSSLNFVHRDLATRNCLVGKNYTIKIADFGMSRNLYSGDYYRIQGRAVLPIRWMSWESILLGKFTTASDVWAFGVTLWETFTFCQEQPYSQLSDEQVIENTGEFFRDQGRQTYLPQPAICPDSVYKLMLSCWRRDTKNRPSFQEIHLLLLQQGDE
Description: as §1, §2

LYN = target: T7, LYN (Homo sapiens, UniProt P07948); test: KINOMEscan competition binding assay
T7 construct: purchased Eurofins DiscoverX Corporation (KINOMEscan); host or cells: E. coli BL21-derived host (T7 phage) or HEK-293
T7 sequence (P07948 whole entry): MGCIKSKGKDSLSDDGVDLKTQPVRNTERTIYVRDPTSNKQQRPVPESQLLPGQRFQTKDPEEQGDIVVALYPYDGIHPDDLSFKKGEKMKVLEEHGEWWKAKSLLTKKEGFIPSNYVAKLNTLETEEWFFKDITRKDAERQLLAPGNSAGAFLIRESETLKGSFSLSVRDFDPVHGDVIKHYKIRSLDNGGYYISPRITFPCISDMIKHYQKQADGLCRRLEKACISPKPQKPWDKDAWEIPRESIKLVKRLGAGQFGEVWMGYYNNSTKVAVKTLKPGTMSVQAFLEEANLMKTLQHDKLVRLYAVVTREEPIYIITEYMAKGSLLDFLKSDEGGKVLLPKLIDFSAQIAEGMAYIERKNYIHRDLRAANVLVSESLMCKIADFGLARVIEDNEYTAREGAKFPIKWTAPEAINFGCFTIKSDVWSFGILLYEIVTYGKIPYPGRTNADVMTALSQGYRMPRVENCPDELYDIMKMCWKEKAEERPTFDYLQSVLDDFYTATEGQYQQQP
Description: as §1, §2

PIK4CB = target: T8, PIK4CB (Homo sapiens, UniProt Q9UBF8); test: KINOMEscan competition binding assay
T8 construct: purchased Eurofins DiscoverX Corporation (KINOMEscan); host or cells: E. coli BL21-derived host (T7 phage) or HEK-293
T8 sequence (Q9UBF8 whole entry): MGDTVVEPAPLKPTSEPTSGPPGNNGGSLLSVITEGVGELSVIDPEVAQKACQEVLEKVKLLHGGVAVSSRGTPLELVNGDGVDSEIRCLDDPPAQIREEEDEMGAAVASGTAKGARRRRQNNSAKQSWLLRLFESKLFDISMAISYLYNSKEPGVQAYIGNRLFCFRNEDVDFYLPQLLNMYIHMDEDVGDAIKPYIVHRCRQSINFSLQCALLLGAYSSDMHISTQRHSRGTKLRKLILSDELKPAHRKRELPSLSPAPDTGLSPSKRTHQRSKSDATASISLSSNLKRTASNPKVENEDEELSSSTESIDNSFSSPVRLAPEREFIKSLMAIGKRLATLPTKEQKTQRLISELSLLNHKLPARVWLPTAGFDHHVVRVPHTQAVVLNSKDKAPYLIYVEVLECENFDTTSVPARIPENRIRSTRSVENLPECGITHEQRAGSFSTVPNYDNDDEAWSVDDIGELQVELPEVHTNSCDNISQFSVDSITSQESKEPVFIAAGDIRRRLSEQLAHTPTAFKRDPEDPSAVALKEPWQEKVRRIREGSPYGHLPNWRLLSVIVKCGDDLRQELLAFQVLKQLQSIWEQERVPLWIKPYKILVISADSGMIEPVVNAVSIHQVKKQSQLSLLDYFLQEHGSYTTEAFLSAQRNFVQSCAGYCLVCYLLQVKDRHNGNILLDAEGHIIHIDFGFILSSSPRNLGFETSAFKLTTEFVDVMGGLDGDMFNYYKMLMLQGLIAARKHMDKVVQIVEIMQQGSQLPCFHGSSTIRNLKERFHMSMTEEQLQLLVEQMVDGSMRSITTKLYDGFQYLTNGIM
Description: as §1, §2

CSF1R = CSF1R (Homo sapiens, UniProt P07333); test: biochemical
FRK = FRK (Homo sapiens, UniProt P42685); test: KINOMEscan competition binding assay
ABL-1-nonphosphorolated [1] = target: T9, ABL-1-nonphosphorolated (Homo sapiens, UniProt P00519); test: biochemical; settings: read-out: Compound Activity Remaining at 1 μM (%)
SRC = SRC (Homo sapiens, UniProt P12931); test: KINOMEscan competition binding assay
FYN = FYN (Homo sapiens, UniProt P06241); test: KINOMEscan competition binding assay
ABL-1-nonphosphorolated [2] = target: T9, ABL-1-nonphosphorolated; settings: ABL1
HCK = HCK (Homo sapiens, UniProt P08631); test: KINOMEscan competition binding assay
DDR1 = DDR1 (Homo sapiens, UniProt Q08345); test: KINOMEscan competition binding assay
FLT4 = FLT4 (Homo sapiens, UniProt P35916); test: KINOMEscan competition binding assay
Sequence of FLT4 (P35916 25-1363): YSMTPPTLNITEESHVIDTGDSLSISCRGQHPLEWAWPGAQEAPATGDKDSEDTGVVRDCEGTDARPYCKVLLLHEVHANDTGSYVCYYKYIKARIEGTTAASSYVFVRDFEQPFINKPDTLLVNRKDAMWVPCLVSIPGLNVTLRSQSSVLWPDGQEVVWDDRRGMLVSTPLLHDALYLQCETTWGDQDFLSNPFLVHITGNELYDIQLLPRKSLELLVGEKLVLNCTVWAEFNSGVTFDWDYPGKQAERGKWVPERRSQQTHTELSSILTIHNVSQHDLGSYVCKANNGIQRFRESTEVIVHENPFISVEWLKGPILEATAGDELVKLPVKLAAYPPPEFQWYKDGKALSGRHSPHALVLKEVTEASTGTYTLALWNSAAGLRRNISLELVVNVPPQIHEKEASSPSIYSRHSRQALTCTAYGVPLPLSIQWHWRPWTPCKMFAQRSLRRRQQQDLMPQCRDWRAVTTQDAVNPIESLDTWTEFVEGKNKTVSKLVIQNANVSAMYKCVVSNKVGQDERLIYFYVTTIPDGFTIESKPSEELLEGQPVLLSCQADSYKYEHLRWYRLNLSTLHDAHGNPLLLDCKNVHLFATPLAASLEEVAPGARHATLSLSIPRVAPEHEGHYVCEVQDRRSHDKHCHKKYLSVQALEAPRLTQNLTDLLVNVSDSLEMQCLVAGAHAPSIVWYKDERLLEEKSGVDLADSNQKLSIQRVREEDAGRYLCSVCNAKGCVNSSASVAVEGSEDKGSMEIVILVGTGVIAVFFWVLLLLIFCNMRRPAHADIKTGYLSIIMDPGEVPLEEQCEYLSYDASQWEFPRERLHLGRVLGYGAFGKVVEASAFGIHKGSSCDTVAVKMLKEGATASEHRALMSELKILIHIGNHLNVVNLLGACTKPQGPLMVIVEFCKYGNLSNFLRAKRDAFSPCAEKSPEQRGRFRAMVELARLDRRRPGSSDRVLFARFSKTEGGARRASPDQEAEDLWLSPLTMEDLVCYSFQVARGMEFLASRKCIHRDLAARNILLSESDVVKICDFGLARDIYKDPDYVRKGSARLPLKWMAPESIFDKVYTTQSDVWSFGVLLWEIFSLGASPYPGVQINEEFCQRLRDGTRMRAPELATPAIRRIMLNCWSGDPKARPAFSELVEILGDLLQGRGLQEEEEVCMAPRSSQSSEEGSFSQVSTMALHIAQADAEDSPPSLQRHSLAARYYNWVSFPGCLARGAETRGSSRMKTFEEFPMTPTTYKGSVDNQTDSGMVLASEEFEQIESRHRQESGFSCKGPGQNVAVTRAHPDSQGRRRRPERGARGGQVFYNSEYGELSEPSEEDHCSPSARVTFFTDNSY

KIT = KIT (Homo sapiens, UniProt P10721); test: KINOMEscan competition binding assay
LCK = LCK (Homo sapiens, UniProt P06239); test: KINOMEscan competition binding assay
[3] = target: T10, phosphatidylinositol 5-phosphate 4-kinase type-2 gamma (PI42C) (Homo sapiens, UniProt Q8TBX8); test: KINOMEscan competition binding assay
T10 construct: purchased Eurofins DiscoverX Corporation (KINOMEscan); host or cells: E. coli BL21-derived host (T7 phage) or HEK-293
T10 sequence (Q8TBX8 1-421): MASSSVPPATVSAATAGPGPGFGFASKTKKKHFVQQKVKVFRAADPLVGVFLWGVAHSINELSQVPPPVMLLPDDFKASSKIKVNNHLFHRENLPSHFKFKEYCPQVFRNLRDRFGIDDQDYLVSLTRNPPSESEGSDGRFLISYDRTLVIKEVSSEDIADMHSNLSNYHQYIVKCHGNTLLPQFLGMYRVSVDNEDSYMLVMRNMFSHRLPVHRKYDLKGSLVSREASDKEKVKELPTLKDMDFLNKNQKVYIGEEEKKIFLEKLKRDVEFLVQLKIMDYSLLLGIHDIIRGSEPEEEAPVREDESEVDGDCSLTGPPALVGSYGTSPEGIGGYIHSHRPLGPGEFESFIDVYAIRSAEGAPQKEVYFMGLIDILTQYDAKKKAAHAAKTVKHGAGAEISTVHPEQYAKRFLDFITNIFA
Description: The ligand-bound beads were blocked with excess biotin and washed with blocking buffer (SeaBlock (Pierce), 1% BSA, 0.05% Tween 20, 1 mM DTT) to remove unbound ligand and to reduce nonspecific binding. […] Test compounds were prepared as 111× stocks in 100% DMSO. Kds were determined using an 11-point 3-fold compound dilution series with three DMSO control points.
as §2

[4] = read-out: Compound Activity Remaining at 1 μM (%)

For `COc1ccc(-c2cncc(N[C@@H](C)c3cccc(NC(=O)c4cncc(C)c4)c3)n2)cc1OC` [Compound B], the Kd (PDGFR-α) was 4 nM, the remaining binding at 1 µM (PDGFR-α; 1 μM compound) was 0.35% and the Kd (FGR) was 92 nM. It also gave a remaining binding at 1 µM (FGR; 1 μM compound) of 21%, a Kd (RET) of 19 nM and a remaining binding at 1 µM (RET; 1 μM compound) of 3.9%. The Kd (PDGFR-β) was 0.82 nM, the remaining binding at 1 µM (PDGFR-β; 1 μM compound) was 0% and the Kd (VEGFR2) was 15 nM. For the same molecule, the remaining binding at 1 µM (VEGFR2; 1 μM compound) was 0.25%, the Kd (DDR2) was 19 nM and the remaining binding at 1 µM (DDR2; 1 μM compound) was 1.8%. It also gave a Kd (LYN) of 24 nM, a remaining binding at 1 µM (LYN; 1 μM compound) of 7.3% and a Kd (PIK4CB) of 150 nM. The remaining binding at 1 µM (PIK4CB; 1 μM compound) was 3.8%, the Kd (CSF1R) was 6.1 nM and the remaining activity at 1 µM (CSF1R; [4]) was 0.7%. It also gave a Kd (FRK) of 11 nM, a remaining binding at 1 µM (FRK; [4]) of 5.3% and a remaining activity at 1 µM (ABL-1-nonphosphorolated [1]) of 3.3%. The Kd (SRC) was 130 nM, the remaining binding at 1 µM (SRC; [4]) was 6.4% and the Kd (FYN) was 55 nM. For the same molecule, the remaining binding at 1 µM (FYN; [4]) was 9.7%, the “kinase found to be inhibited” value (ABL-1-nonphosphorolated [2]) was “inhibited” and the Kd (HCK) was 36 nM. For the same molecule, the remaining binding at 1 µM (HCK; [4]) was 3.3%, the Kd (DDR1) was 3.5 nM and the remaining binding at 1 µM (DDR1; [4]) was 0.2%. It also gave a Kd (FLT4) of 18 nM, a remaining binding at 1 µM (FLT4; [4]) of 12% and a Kd (KIT) of 4.7 nM. The remaining binding at 1 µM (KIT; [4]) was 0%, the Kd (LCK) was 22 nM and the remaining binding at 1 µM (LCK; [4]) was 1.1%.

With “imatinib [Compound A, reference compound]” the “Compound Activity Remaining at 1 μM (%)” value (PDGFR-α; 1 μM compound) was 0.95%, the “Compound Activity Remaining at 1 μM (%)” value (FGR; 1 μM compound) was 70% and the Kd (RET) was over 10000 nM. For the same molecule, the “Compound Activity Remaining at 1 μM (%)” value (RET; 1 μM compound) was 98%, the “Compound Activity Remaining at 1 μM (%)” value (PDGFR-β; 1 μM compound) was 0.15% and the “Compound Activity Remaining at 1 μM (%)” value (VEGFR2; 1 μM compound) was 70%. For the same molecule, the “Compound Activity Remaining at 1 μM (%)” value (DDR2; 1 μM compound) was 0.8%, the “Compound Activity Remaining at 1 μM (%)” value (LYN; 1 μM compound) was 30% and the “Compound Activity Remaining at 1 μM (%)” value (PIK4CB; 1 μM compound) was 59%. The “kinase found to be inhibited” value [3] was “inhibited”, the Kd (FLT4; FLT4) was over 10000 nM and the “Compound Activity Remaining at 1 μM (%)” value (FLT4; FLT4, 1 μM compound) was 87%. For the same molecule, the “Compound Activity Remaining at 1 μM (%)” value (KIT; KIT, 1 μM compound) was 0.5%.
